Source: US7662388B2, “Endogenous peptide and active subfragments thereof” (Innoventus Project AB, priority 2003, dated 2010)

Legend:
[1] = tested on: T241 fibrosarcoma cells; experiment: TUNEL and Ki67 staining of tumour sections; assay type: in vivo, mice
Protocol: (§1) Paraffin-sections of tumours from control- or HRGP-treated animals were immunohistochemically (IHC) stained for CD31 and Ki67 using a goat anti-mouse CD31 antibody (1506; Santa Cruz), diluted 1:500 and incubated at +4° C. over night, and a rat anti-mouse Ki67 antibody (TEC-3/M7249; DAKO) diluted 1:50 and incubated for 30 min. at room temperature, according to standard IHC procedures. Detection of apoptotic cells by the TUNEL-technique was performed using ApopTag™ (Intergen Company) according to the manufacturer's protocol. Stereological quantification of vascular parameters was performed as described earlier by Weibel et al (1979) and Gundersen et al (1988). Quantification of the relative number of Tunel- and Ki67-positive cells was calculated from approximately 3000 cells per tumour section, in three tumours from each treatment group. Significance at the level of P<0.05 was calculated using Students t-test.

[2] = tested on: T241 fibrosarcoma tumour vessels; experiment: CD31 staining and stereological quantification of tumour vascular parameters; assay type: in vivo, mice
Protocol: as §1
Sections of paraffin-embedded tumours from control (IgG)- or HRGP-treated mice were immunohistochemically stained for CD31 expression to visualise the vessels. […] Stereological quantification of vascular parameters was performed as described earlier by Weibel et al (1979) and Gundersen et al (1988). This method of quantifying tumour angiogenesis relates the length, volume and surface area of the vessels to tumour volume.

[3] = tested on: primary BCE cells; experiment: chemotaxis (migration) assay in modified Boyden chamber, BCE cells; assay type: cell-based, bovine
Protocol: The porcine aortic endothelial (PAE) cell line overexpressing FGF receptor-1 (FGFR-1) (Wennström et al 1992) was cultured in Ham's F12/10% fetal bovine serum (FCS) and NIH 3T3 murine fibroblasts were cultured in Dulbecco's modified medium (DMEM)/10% newborn calf serum (NCS). F12, DMEM and serum were bought from Life Technologies. Primary bovine adrenal cortex capillary endothelial (BCE) cells were cultured on gelatin-coated dishes in DMEM/10% NCS and 2 ng/ml FGF-2 (Boehringer Mannheim). For chemotaxis assays, both PAE and NIH 3T3 cells were serum-starved over night in 0.1% BSA and BCE cells in 0.5% NCS. Human embryonic kidney (HEK) 293-EBNA cells were cultured in DMEM/10% FCS. Approximately every second month they were given 0.25 mg/ml G418 (Calbiochem) to ensure positive selection of the EBNA-1 expressing cells.
A migration assay was performed in a modified Boyden chamber as described earlier (Auerbach et al., 1991) using micropore polycarbonate filters (8 μm thick, 8 μm pore) coated with type-1 collagen solution at 100 μg/ml (Vitrogen 100, Collagen Corp). BCE, PAE/FGFR-1 or NIH 3T3 cells were preincubated or not with HRGP (100 ng/ml) for 30 min, trypsinised and resuspended at a concentration of 7.5×10^5 cells/ml in Dulbecco's modified essential medium (Invitrogen) containing 0.25% BSA and Trasylol at 1000 KIE. FGF-2 and VEGF-A was used at 5 ng/ml, HRGP and the protein C inhibitor (PCI) at 100 ng/ml and BSA at 0.25%. After 5 h at 37° C., migrated cells were stained with Giemsa and counted using an image analysis software (Easy Image Analysis) from Tekno Optik AB, Sweden. All samples were analysed in at least six parallel wells for each treatment.

[4] = tested on: primary BCE cells; experiment: comparative study pep2/pep3, chemotaxis; assay type: cell-based, bovine; details: 100 ng/ml, FGF-2 10 ng/ml
Protocol: Primary endothelial cells were starved over night in 0.5% normal calf serum. A migration assay was performed in a modified Boyden chamber as described earlier (Auerbach et al., 1991) using micropore polycarbonate filters (8 μm thick, 8 μm pore) coated with type-1 collagen solution at 100 μg/ml (Vitrogen 100, Collagen Corp). Cells were trypsinized and resuspended at 7.5×10^5 cells/ml in Dulbecco's modified essential medium (Invitrogen) containing 0.25% BSA and Trasylol at 1000 KIE. The cell suspension was added in the upper chamber and FGF-2 (10 ng/ml), HRGP (100 ng/ml), peptide 2 or 3 (50 ng/ml) in medium containing 0.25% BSA were added to the lower chamber. The peptides were dissolved in PBS containing a 10-fold molar excess (Zn:peptide) of Zn^2+-acetate. After 5 h at 37° C., cells that had migrated through the filter were stained with Giemsa and counted using the Easy Image Analysis software. All samples were analyzed in at least six wells for each treatment. Results of the study are illustrated in FIG. 7.

[5] = tested on: BCE cells; experiment: endothelial cell adhesion to matrix proteins; assay type: cell-based, bovine; details: HRGP 100 ng/ml, serum-free medium, 45 min
Protocol: BCE cells were detached using non-enzymatic “Cell Dissociation Solution” (Sigma), washed and re-suspended in DMEM/0.1% BSA and FGF-2 (2 ng/ml). The cells were seeded in serum-free medium, with or without HRGP (100 ng/ml), into wells pre-coated with BSA, collagen I, collagen IV, laminin-1 or vitronectin, respectively (CytoMatrix ECM 205 kit, Chemicon). The cells were incubated for 45 (collagen I, collagen IV and vitronectin) or 60 minutes (laminin-1), washed three times in PBS and stained with Hoechst 33342 (1 μg/ml; Molecular Probes). The cells were micro-photographed using the 2× objective and the number of attached cells was counted using the “Easy Image Analysis” software (Tekno Optik). Statistical analysis was performed by ANOVA and Tukeys honestly significant difference (HSD) test. The standard deviation is based on the pooled variance.

Question: Which “tumour apoptosis compared to control group” value ([1]; TUNEL staining, HRGP vs IgG control) does the source give for “HRGP: mature human Histidine Rich Glycoprotein, about 507 amino acid residues” here?
Answer: No difference in tumour apoptosis

Question: And the “percentage of apoptotic (TUNEL-positive) cells in the tumours” value ([1]; tumours from HRGP-treated mice)?
Answer: less than 1%

Question: What about the “proportion of proliferating (Ki67-positive) cells in tumours” value ([1]; tumours from HRGP-treated mice, control 43%) of the same substance?
Answer: 29%

Question: What about the “vessel diameter in tumours, visual inspection of CD31 staining” value ([2]; HRGP-treated vs control) of the same substance?
Answer: reduced vessel diameter

Question: And the “vascular parameters (length, volume, surface area of vessels related to tumour volume)” value ([2]; tumours from HRGP-treated vs IgG-treated mice)?
Answer: all six vascular parameters determined were reduced

Question: What about the “FCS-induced chemotaxis of BCE cells” value ([3]; 100 ng/ml HRGP) of the same substance?
Answer: not inhibited

Question: And the “VEGF-A-induced chemotaxis of BCE cells” value ([3]; 100 ng/ml HRGP, VEGF-A 5 ng/ml)?
Answer: inhibited

Question: And the “FGF-2-induced chemotaxis of BCE cells” value ([3]; 100 ng/ml protein, FGF-2 5 ng/ml, 5 h)?
Answer: completely arrested

Question: What about the “FGF-2-induced chemotaxis of primary BCE cells” value [4] of the same substance?
Answer: inhibited

Question: And the “endothelial cell adhesion to vitronectin, collagen I and collagen IV” value [5]?
Answer: decreases endothelial cell adhesion
